According to PubChem BioAssay (NCI):
Values joined by “and” are separate entries in the source; they are usually repeats but may differ in a detail not shown here. Identical values can stand only once.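 Briefly, cells in 96-well plates were exposed to five compound concentrations for 48 h, and endpoints were estimated by linear interpolation. The concentration for 50% growth inhibition is given as GI50. TGI: concentration producing complete growth inhibition.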

Columns and labels:
Experiment in all cases: NCI-60 cell line screen, 48 h
[1] = system: 786-0 renal
[2] = system: A498 renal
[3] = system: MOLT-4 leukemia
[4] = system: OVCAR-3 ovarian
[5] = system: OVCAR-4 ovarian
[6] = system: SK-MEL-5 melanoma
[7] = system: SNB-19 CNS
[8] = system: SR leukemia
[9] = system: UACC-257 melanoma
[10] = system: UO-31 renal

CC1=C(C#N)C(N)=C2C(C)=C(C#N)C(N)=C12
TGI [1]: > 100 µM
TGI [2]: > 100 µM
TGI [3]: > 100 µM
TGI [4]: > 100 µM
TGI [5]: > 100 µM
TGI [6]: > 100 µM
TGI [7]: > 100 µM
TGI [8]: > 100 µM
TGI [9]: > 100 µM
TGI [10]: > 100 µM

COC(=O)C12CC(C3CC31)C1CC12 (stereo not given)
TGI [1]: > 100 µM
TGI [2]: > 100 µM
TGI [3]: > 100 µM
TGI [4]: > 100 µM
TGI [5]: > 100 µM
TGI [6]: > 100 µM
TGI [7]: > 100 µM
TGI [8]: > 100 µM
TGI [9]: > 100 µM
TGI [10]: > 100 µM

O=C1C=C(Nc2cccc(Br)c2)c2ccccc2C1=O
GI50 [1]: 7.25 µM
TGI [1]: 28.2 µM
GI50 [2]: 4.06 µM
TGI [2]: 27.2 µM
GI50 [3]: 18.4 µM
TGI [3]: 42.7 µM
GI50 [4]: 2.89 µM
TGI [4]: 16 µM
GI50 [5]: 11 µM
TGI [5]: 63.2 µM
GI50 [6]: 1.2 µM
TGI [6]: 10.5 µM
GI50 [7]: 6.56 µM
TGI [7]: > 100 µM
GI50 [8]: 10.2 µM
TGI [8]: 40.3 µM
GI50 [9]: 5.99 µM
TGI [9]: > 100 µM
GI50 [10]: 1.81 µM
TGI [10]: 33.6 µM

O=c1oc(-c2ccc(O)c(O)c2)cc2cc(O)cc(O)c12
GI50 [1]: 39.6 µM
TGI [1]: > 100 µM
GI50 [2]: 27.3 µM
TGI [2]: 56.7 µM
GI50 [3]: 22.4 µM
TGI [3]: > 100 µM
GI50 [4]: 35.3 µM
TGI [4]: > 100 µM
GI50 [5]: 76.6 µM
TGI [5]: > 100 µM
GI50 [6]: 18 µM
TGI [6]: 42.2 µM
GI50 [7]: 56.3 µM
TGI [7]: > 100 µM
GI50 [8]: 8.26 µM
TGI [8]: > 100 µM
GI50 [9]: 38 µM
TGI [9]: > 100 µM
GI50 [10]: 18.5 µM
TGI [10]: > 100 µM

c1ccc2c(c1)nc(NCCN1CCNCC1)c1c3ccccc3[nH]c21
GI50 [1]: 0.342 µM
TGI [1]: 1.6 µM
GI50 [2]: 1.56 µM
TGI [2]: 3.27 µM
GI50 [3]: 0.0983 µM
TGI [3]: 0.887 µM
GI50 [4]: 0.413 µM
TGI [4]: 2.51 µM
GI50 [5]: 0.379 µM
TGI [5]: 2.24 µM
GI50 [6]: 1.27 µM
TGI [6]: 2.61 µM
GI50 [7]: 0.381 µM
TGI [7]: 3.15 µM
GI50 [8]: 0.226 µM
TGI [8]: 1.33 µM
GI50 [9]: 1.71 µM
TGI [9]: 3.27 µM
GI50 [10]: 0.567 µM
TGI [10]: 2.05 µM

C[C@@H](NC(=O)Cc1cc(F)cc(F)c1)C(=O)N[C@@]1(C)N=C(c2ccccc2)c2ccccc2N(C)C1=O
GI50 [1]: > 100 µM
TGI [1]: > 100 µM
GI50 [2]: 1.13 µM
TGI [2]: 42.6 µM
GI50 [3]: 11.7 µM
TGI [3]: 50.1 µM
GI50 [4]: 30 µM
TGI [4]: > 100 µM
GI50 [5]: > 100 µM
TGI [5]: > 100 µM
GI50 [6]: 35.2 µM
TGI [6]: > 100 µM
GI50 [7]: > 100 µM
TGI [7]: > 100 µM
GI50 [8]: 2.5 µM
TGI [8]: > 22.7 µM
GI50 [9]: 37.5 µM
TGI [9]: > 100 µM
GI50 [10]: 30.5 µM
TGI [10]: > 100 µM

CC1(CC(=O)O)OC2CCCCCC2O1 (stereo not given) (tested in a mixture with another compound)
TGI [1]: > 100 µM
TGI [2]: > 100 µM
TGI [3]: > 100 µM
TGI [4]: > 100 µM
TGI [5]: > 100 µM
TGI [6]: > 100 µM
TGI [7]: > 100 µM
TGI [8]: > 100 µM
TGI [9]: > 100 µM
TGI [10]: > 100 µM

Cc1ccc(NCSc2ccc(Cl)cc2)cc1
GI50 [1]: 6.53 µM
TGI [1]: > 100 µM
GI50 [2]: 18.8 µM
TGI [2]: > 100 µM
GI50 [3]: 6.15 µM
TGI [3]: > 100 µM
GI50 [4]: 9.22 µM
TGI [4]: > 100 µM
GI50 [5]: 5.06 µM
TGI [5]: > 100 µM
GI50 [6]: > 100 µM
TGI [6]: > 100 µM
GI50 [7]: 46.9 µM
TGI [7]: > 100 µM
GI50 [8]: > 100 µM
TGI [8]: > 100 µM
GI50 [9]: > 100 µM
TGI [9]: > 100 µM
GI50 [10]: 1.65 µM
TGI [10]: 30.8 µM

C/C(=C(/c1ccc(O)cc1)c1ccc(OCCN2CCCC2)cc1)c1ccccc1
GI50 [1]: 1.86 µM
TGI [1]: 4.09 µM
GI50 [2]: 1.67 µM
TGI [2]: 8.49 µM
GI50 [3]: 2.94 µM
TGI [3]: 11 µM
GI50 [4]: 5.66 µM
TGI [4]: 18.1 µM
GI50 [5]: 4.7 µM
TGI [5]: 17.5 µM
GI50 [6]: 1.72 µM
TGI [6]: 3.1 µM
GI50 [7]: 2.95 µM
TGI [7]: 8.1 µM
GI50 [8]: 1.93 µM
TGI [8]: 5.75 µM
GI50 [9]: 2.03 µM
TGI [9]: 3.93 µM
GI50 [10]: 1.87 µM
TGI [10]: 5.72 µM

O=C1c2c(O)cccc2C(C(=O)CCCCC(=O)C2c3cccc(O)c3C(=O)c3c(O)cccc32)c2cccc(O)c21
GI50 [1]: 4.83 µM
TGI [1]: 5.53 µM and 10.7 µM
GI50 [2]: 2.14 µM
TGI [2]: 5.27 µM and 7.36 µM
GI50 [3]: 1.8 µM
TGI [3]: 5.42 µM and 9.97 µM
GI50 [4]: 1.39 µM
TGI [4]: 1.3 µM and 2.53 µM
GI50 [5]: 1.21 µM
TGI [5]: 1.74 µM and 2.31 µM
GI50 [6]: 1.09 µM
TGI [6]: 0.921 µM and 2.04 µM
GI50 [7]: 0.529 µM
TGI [7]: 1.35 µM and 1.89 µM
GI50 [8]: 1.41 µM
TGI [8]: 25 µM and 2.87 µM
GI50 [9]: 1.38 µM
TGI [9]: 1.34 µM and 2.96 µM
GI50 [10]: 1.11 µM
TGI [10]: 1.01 µM and 2.38 µM

Cc1cc(N(CCC#N)S(=O)(=O)c2ccccc2)ccc1C=O
TGI [1]: > 100 µM
TGI [2]: > 100 µM
TGI [3]: > 100 µM
TGI [4]: > 100 µM
TGI [5]: > 100 µM
TGI [6]: > 100 µM
TGI [7]: > 100 µM
TGI [8]: > 100 µM
TGI [9]: > 100 µM
TGI [10]: > 100 µM

Cc1ccc([P+](Cc2ccc([N+](=O)[O-])cc2)(c2ccc(C)cc2)c2ccc(C)cc2)cc1
GI50 [1]: 9.72 µM
TGI [1]: 22.3 µM
GI50 [2]: 2.54 µM
TGI [2]: 12.7 µM
GI50 [3]: 5.97 µM
TGI [3]: 29.3 µM
GI50 [4]: 1.71 µM
TGI [4]: 7.07 µM
GI50 [5]: 2.2 µM
TGI [5]: 11.3 µM
GI50 [6]: 1.22 µM
TGI [6]: 2.52 µM
GI50 [7]: 3.25 µM
TGI [7]: 13.6 µM
GI50 [8]: 2.84 µM
TGI [8]: 12.3 µM
GI50 [9]: 1.69 µM
TGI [9]: 5.3 µM
GI50 [10]: 13.3 µM
TGI [10]: 31.5 µM

O=C1OC(c2ccc(O)cc2)(c2ccc(O)cc2)c2cccc3cccc1c23
GI50 [1]: 20.2 µM
TGI [1]: 41.8 µM
GI50 [2]: 0.488 µM
TGI [2]: 15.3 µM
GI50 [3]: 11.7 µM
TGI [3]: 33.8 µM
GI50 [4]: 3.53 µM
TGI [4]: 19.9 µM
GI50 [5]: 0.18 µM
TGI [5]: 17.4 µM
GI50 [6]: 16.1 µM
TGI [6]: 31.3 µM
GI50 [7]: 16.8 µM
TGI [7]: 34.5 µM
GI50 [8]: 10.8 µM
TGI [8]: 38.3 µM
GI50 [9]: 13.8 µM
TGI [9]: 27.8 µM
GI50 [10]: 12.5 µM
TGI [10]: 28.9 µM
